Source: patent US8039464B2, “Muscarinic antagonists with PARP and SIR modulating activity as agents for inflammatory diseases” (ProteoSys AG, priority 2004, dated 2011)
Read-outs that look alike come from different tables or passages of the source.

Legend:
PARP-1 [1] = biological target: T1, PARP-1 (Homo sapiens, UniProt P09874); test: PARP inhibition assay (R&D Systems, Cat. No. TA4669); type: biochemical; conditions: for IC50: R&D assay, recombinant monomeric PARP-1, read-out: IC50 PARP-1 inhibition
PARP-1, sequence (P11103 215-1013 limits assumed): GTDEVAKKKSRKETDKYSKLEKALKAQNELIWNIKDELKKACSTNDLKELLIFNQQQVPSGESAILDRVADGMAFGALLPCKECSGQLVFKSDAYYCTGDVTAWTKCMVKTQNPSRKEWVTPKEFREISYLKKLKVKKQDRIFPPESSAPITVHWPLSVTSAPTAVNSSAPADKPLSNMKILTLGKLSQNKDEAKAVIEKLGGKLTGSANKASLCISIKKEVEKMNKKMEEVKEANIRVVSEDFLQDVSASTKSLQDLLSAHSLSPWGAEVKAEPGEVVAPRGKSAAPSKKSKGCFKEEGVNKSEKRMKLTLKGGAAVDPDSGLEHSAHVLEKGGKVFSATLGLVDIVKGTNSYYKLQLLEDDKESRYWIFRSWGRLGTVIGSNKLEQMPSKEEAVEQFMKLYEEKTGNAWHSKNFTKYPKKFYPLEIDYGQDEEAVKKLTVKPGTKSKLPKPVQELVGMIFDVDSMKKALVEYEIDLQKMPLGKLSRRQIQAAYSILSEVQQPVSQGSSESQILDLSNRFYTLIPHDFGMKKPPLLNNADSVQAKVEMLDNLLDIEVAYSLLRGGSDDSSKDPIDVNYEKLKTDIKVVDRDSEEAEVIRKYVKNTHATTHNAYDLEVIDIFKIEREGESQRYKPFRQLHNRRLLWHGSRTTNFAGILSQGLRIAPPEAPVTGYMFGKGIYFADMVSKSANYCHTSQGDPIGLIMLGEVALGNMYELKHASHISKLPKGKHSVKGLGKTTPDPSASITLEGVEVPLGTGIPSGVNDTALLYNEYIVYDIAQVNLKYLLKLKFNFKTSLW
T1 construct: purchased R&D Systems TA4669
T1 sequence (P09874 whole entry): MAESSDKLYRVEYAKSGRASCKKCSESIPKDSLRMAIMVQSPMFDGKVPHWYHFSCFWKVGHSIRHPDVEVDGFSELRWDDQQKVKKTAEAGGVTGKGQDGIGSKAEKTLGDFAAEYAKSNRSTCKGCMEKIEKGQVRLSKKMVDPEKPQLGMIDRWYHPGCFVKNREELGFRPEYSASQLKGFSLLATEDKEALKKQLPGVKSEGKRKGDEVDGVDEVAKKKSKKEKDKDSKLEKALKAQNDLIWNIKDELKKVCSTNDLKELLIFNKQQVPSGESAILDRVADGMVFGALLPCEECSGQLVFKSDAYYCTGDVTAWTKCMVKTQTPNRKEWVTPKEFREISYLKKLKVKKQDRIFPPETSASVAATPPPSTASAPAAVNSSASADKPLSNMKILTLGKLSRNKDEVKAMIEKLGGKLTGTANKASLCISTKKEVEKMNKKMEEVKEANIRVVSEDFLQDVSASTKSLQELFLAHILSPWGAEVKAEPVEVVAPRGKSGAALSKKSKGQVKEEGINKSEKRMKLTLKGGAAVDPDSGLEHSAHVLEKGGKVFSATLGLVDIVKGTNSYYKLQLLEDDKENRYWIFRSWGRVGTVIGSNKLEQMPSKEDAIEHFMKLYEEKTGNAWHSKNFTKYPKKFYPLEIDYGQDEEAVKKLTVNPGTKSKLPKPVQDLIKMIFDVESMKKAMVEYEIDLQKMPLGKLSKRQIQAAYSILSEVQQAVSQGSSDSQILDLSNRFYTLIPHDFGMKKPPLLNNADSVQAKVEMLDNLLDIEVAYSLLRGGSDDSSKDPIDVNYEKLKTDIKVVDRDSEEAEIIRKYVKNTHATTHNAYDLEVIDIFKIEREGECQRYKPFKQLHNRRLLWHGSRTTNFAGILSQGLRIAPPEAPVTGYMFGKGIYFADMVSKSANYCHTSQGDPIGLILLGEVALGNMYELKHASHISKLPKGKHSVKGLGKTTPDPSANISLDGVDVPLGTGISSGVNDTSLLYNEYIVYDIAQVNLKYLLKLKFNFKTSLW
From the text: A PARP inhibition assay from R&D Systems was used (Cat. No. TA4669) according to instructions of the supplier.
Under cellular conditions PARP-1 poly-ADP-ribosylates a host of nuclear proteins, including topoisomerase 1, 14-3-3 g and PARP-1 itself. Thus under cellular conditions, the self-modification of PARP-1 and dimerization are regulating its activity, moreover there is a tight interplay with PARG (poly-ADP-ribosyl-glycohydroxylase).

SIR-2 [2] = biological target: T2, SIR-2 (Mus musculus, UniProt Q923E4); test: SIR2 activity assay (CycLex SIR2 Assay kit); type: biochemical, murine; conditions: control; read-out: IC50 SIR-2 inhibition
T2 construct: Using a raw extract from murine embryonic stem cells; host or cells: murine embryonic stem cells (raw extract)
T2 sequence (Q923E4 2-737 limits assumed): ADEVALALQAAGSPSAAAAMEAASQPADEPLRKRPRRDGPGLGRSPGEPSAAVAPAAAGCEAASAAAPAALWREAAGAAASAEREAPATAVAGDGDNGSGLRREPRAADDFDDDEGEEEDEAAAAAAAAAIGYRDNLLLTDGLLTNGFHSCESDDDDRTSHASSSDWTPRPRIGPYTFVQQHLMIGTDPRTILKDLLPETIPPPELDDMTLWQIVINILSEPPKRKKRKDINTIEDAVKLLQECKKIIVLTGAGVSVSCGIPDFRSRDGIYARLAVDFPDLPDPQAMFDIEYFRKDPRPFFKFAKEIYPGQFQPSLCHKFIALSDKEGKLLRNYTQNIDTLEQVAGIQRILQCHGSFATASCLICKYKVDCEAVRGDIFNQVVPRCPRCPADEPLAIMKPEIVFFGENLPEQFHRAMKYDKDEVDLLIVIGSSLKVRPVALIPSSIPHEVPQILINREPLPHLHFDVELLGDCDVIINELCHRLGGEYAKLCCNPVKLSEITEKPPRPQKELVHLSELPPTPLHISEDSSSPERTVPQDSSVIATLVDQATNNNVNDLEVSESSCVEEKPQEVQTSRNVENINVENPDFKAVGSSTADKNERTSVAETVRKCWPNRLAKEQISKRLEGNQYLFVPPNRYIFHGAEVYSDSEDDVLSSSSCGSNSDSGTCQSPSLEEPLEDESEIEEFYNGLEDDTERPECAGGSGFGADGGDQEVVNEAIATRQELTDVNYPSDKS
From the text: For measurements of SIR2 activities, the quantitative test kit for NAD-dependent histone deacetylase activity CycLex® SIR2 Assay kit (Cat# CY-1151) was used according to instructions of manufacturer (CycLex Co., Ltd. 1063-103 Ohara, Tera-Sawaoka Ina, Nagano 396-0002 Japan). All substances tested in the SIR assay were cross-checked for their influence on the lysyl-endopeptidase. For this control an already deacetylated substrate peptide was used in order to measure directly lysyl-endopeptidase activity.
For measurements of SIR2 activities, the quantitative test kit for NAD-dependent histone deacetylase activity CycLex® SIR2 Assay kit (Cat# CY-1151) was used according to instructions of manufacturer (CycLex Co., Ltd. 1063-103 Ohara, Tera-Sawaoka Ina, Nagano 396-0002 Japan).

[3] = Blood-brain-barrier passage: HPLC of plasma and CSF; conditions: rat, in vivo
From the text: J. Gastroenterol. 66, 35ff.; Homon et al., 1987, Therapeutic Drug Monitoring 9, 236ff.).

[4] = system: D3 embryonic stem (ES) cells, neurons; test: Cell culture model for chemical ischemia and neuroprotection (calcium imaging); type: cell-based, mice
Procedure: For all experiments, D3 embryonic stem (ES) cells derived from 129/sv mice [Okabe et al., 1996] were cultivated for 12 days, with passages on days 2, 4, 7 and 9 as described previously [Sommer et al., 2004]. Insult conditions: Cells (24-well plates) were pre-incubated with or without 20 nM EPO in fresh medium for 24 hours at 37° C. Cells were rinsed once with low K^+ solution (140 mM NaCl, 4.7 mM KCl, 1.2 mM KH2PO4, 2.5 mM CaCl2, 1.2 mM MgSO4, 11 mM glucose, 15 mM Hepes-NaOH, pH 7.35). Cells (either with or without EPO pre-incubation) were incubated for up to 45 min (37° C.) with either low K^+ solution or with glucose-free low K^+ solution supplemented with 1 mM KCN (chemical ischemia solution [Kume et al., 2002]). Vitality control to asses numbers of surviving neurons was performed by a brief stimulation with a low dose of glutamate (10 μM). Afterwards, cells were washed three times with ice cold phosphate buffered saline (PBS), and then proteins were harvested. Suspended cells were pelleted at 500×G, and lysed into 9M urea 4% CHAPS. The cell lysate was desalted with a NAP-10 column (Amersham Biosciences), preequilibrated with the same buffer, and protein content was determined.
Functional tests by calcium imaging were performed essentially as described [Sommer et al., 2004]. Briefly, cells were loaded with 2 μM of […] in DMEM for 45 min at 37° C. in the dark. Measurements of relative changes in [Ca^2+] were made on an inverted epifluorescence microscope (Olympus IX70 S1F2) with a Polychrom IV Monochromator (Xe-lamp, USHIO). Excitation wavelengths (λ1, λ2) and the emission wavelength were 340, 380 and 510 nm, respectively. Acquisition and analysis of data after appropriate stimulation were performed by using MetaFluor software (Universal Imaging Corporation). Image resolution was 168×129 pixels (binning 8×8, pixel size 6.8×6.8 μm). Only cells identified as neurons by morphological criteria and occasional immunostaining (not shown) and those whose calcium levels returned to the resting state after the first stimulation were taken into account. Controls included nominal zero calcium (negative) and 5 μM ionomycin (positive), 10 μM glutamate (positive) and depolarisation (55 mM K+) (positive). Pharmacological agents were applied by a multi-valve, single-output focal drug application device (ALA Scientific) with the perfusion system DAD-12. […] During each stimulation event 20 image pairs were acquired.

iNOS and Cox-2 = test: Cox-2 and iNOS expression after LPS challenge (Western blot); type: cell-based; conditions: LPS 100 ng/ml for 60 min
Procedure: (§1) Cell pellets were further investigated by Western blot staining with anti Cox-2 and anti iNOS antibodies of 1D polyacrylamide gels.
(§2) Cell survival was assessed by Trypan Blue staining.

[5] = system: undifferentiated V56 embryonic stem cells; test: LPS challenge, cell survival by Trypan Blue; type: cell-based; conditions: LPS 100 ng/ml for 60 min
Procedure: as §1, §2

A 549 cells = test: LPS challenge, cell survival by Trypan Blue; type: cell-based; conditions: LPS 100 ng/ml for 60 min
Procedure: as §1, §2

[6] = system: neurally differentiated V56 embryonic stem cells; test: LPS challenge, cell survival by Trypan Blue; type: cell-based; conditions: LPS 100 ng/ml for 60 min
Procedure: as §1, §2

3T3 fibroblasts = test: LPS challenge, cell survival by Trypan Blue; type: cell-based; conditions: LPS 100 ng/ml for 60 min
Procedure: as §1, §2

SIR-2 [7] = biological target: T3, SIR-2 (Mus musculus, UniProt Q923E4); test: Affinity enrichment with irreversible pirenzepine affinity tag; type: binding
T3 construct: endogenous in cells; host or cells: V56 / D3 embryonic stem cells, raw extract
T3 sequence (Q923E4 1-737): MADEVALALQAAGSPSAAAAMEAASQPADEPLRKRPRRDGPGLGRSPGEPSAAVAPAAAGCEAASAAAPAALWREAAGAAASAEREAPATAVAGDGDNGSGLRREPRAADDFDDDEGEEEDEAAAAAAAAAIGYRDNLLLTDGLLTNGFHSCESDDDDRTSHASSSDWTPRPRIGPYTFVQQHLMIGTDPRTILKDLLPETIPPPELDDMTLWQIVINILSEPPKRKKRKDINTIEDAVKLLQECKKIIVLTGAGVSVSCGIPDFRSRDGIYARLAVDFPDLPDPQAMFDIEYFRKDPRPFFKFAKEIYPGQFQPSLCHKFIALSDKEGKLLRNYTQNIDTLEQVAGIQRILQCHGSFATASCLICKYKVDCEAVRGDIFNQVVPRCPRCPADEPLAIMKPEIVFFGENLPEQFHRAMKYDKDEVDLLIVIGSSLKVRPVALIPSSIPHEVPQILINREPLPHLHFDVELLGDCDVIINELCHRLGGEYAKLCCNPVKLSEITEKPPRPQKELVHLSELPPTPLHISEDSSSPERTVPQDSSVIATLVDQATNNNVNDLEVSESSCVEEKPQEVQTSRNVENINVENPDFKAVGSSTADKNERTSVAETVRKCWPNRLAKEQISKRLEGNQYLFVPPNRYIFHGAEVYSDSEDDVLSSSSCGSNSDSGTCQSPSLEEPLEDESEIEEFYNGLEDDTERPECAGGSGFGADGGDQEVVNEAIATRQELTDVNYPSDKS
From the text: (§3) A reactive —SCN group is introduced which binds to lysines in or near the binding site of the compound. A biotinylated linker serves for enrichment of bound protein. The synthesis is described in detail co-pending US-application 60/588,354 and 60/620,323 which are herein incorporated by reference. In FIG. 1 a synthesis scheme is depcited. The final product, which was used as affinity reagent is thiocyanato 11-[2-(4-biocytinyl-piperazin-1-yl)-acetyl]-5,11-dihydro-benzo[e]pyrido[3,2-b][1,4]diazepin-6-one, (11).
(§4) The affinity reagent 11 was used to bind the target covalently from fractionations of crude cell extracts of D3 ES cells and other cell lines, subsequently the affinity purified material was analysed by 1D PAGE, immunostaining, and mass spectrometry.
For SIR-2 staining the following antibodies were used: primary Ab: A-SiR 2 (Upstate, biomol 07-131; Lot:22073); 1:5000 in 5% BSA/1×TBST; secondary Ab: A-Rabbit PE(A-0545) 1:1000 in 5% BSA/1×TBST: […]

PARP-1 [8] = test: as above; type: binding, mice
From the text: as §3, §4
The subsequent fractionation, isolation and further analysis was performed according to published standard procedures (Sommer et al. 2004). A commercial anti-PARP antibody was used for staining Western blots. Mass spectrometry for independent identification of pirenzepine-tagged proteins was performed as described elsewhere recently (Vogt et al., 2003, Cahill et al., 2003).
A surplus of affinity tag was removed by NAP10 gel filtration. The reaction mixture was bound to streptavidin agarose. Elution occurred with elution buffer (2% SDS, 62.5 mM Tris-pH 6.8) for 10 min at room temperature and 10 min at 95° C. […]

Question: For `O=c1[nH]c2ccccc2c2ccccc12` [phenanthridone, reference compound], which IC50 (PARP-1 [1]) is on record?
Answer: 7 µM

Question: Which IC50 (SIR-2 [2]) does the source give for `NC(=O)c1cccnc1` [nicotine amide, reference compound] here?
Answer: ~55 µM

Question: For `O=C1Nc2cccnc2N(C(=O)CN2CCNCC2)c2ccccc21` [dm-Pirenzepine, desmethyl-Pirenzepine], which “passage into the brain” value [3] is on record?
Answer: virtually no passage

Question: With `CN1CCN(CC(=O)N2c3ccccc3C(=O)Nc3cccnc32)CC1` [Pirenzepine, 5,11-dihydro-11[(4-methyl-1-piperazinyl)-acetyl]-6H-pyrido-[2,3-b]-[1,4]benzodiazepine-6-one, reference compound] as the compound, how does the “PARP-1 inhibition (in words)” value (PARP-1 [1]) read?
Answer: rather weak PARP-1 inhibitor

Question: And the IC50 (PARP-1 [1])?
Answer: 200 µM

Question: And the “neuroprotective in vitro effect” value ([4]; 1 μM, chemical ischemia)?
Answer: prevents neuronal death

Question: What about the survival rate ([4]; after chemical ischemia, 1 μM Pirenzepine (FIG. 2b)) of the same compound?
Answer: 72.1±4.4%

Question: And the “neuroprotective effect under raft-disrupting conditions” value ([4]; β-methyl-cyclodextrin or filipin)?
Answer: does not occur

Question: And the “expression of inducible inflammatory markers iNOS and Cox-2” value (iNOS and Cox-2)?
Answer: decreased expression

Question: What about the “protection from LPS challenge” value [5] of the same compound?
Answer: protect

Question: What about the “protection from LPS challenge” value (A 549 cells) of the same compound?
Answer: protect

Question: What about the “protection from LPS challenge” value [6] of the same compound?
Answer: protect

Question: What about the “protection from LPS challenge” value (3T3 fibroblasts) of the same compound?
Answer: protect

Question: Which “binding to SIR-2” value (SIR-2 [7]) does the source give for “thiocyanato 11-[2-(4-biocytinyl-piperazin-1-yl)-acetyl]-5,11-dihydro-benzo[e]pyrido[3,2-b][1,4]diazepin-6-one [pirenzepine-affinity tag]” here?
Answer: irreversibly binds

Question: And the “binding to SIR-2” value (SIR-2 [7]; listed as affinity tag)?
Answer: interacts

Question: And the “interaction with PARP-1” value (PARP-1 [8])?
Answer: interacts
